Source: patent US11478478B2, “2,3-disubstituted 1-acyl-4-amino-1,2,3,4-tetrahydroquinoline derivatives and their use as bromodomain inhibitors” (GLAXOSMITHKLINE INTELLECTUAL PROPERTY (NO.2) LIMITED, priority 2013, dated 2022)

Each molecule was assayed on Bromodomains BRD2, BRD3, BRD4 and BRDT (assay: Binding of the fluoroligand to mutated versus non-mutated bromodomain). Details: single residue mutations in the acetyl lysine binding pocket.
Set-up: species or system Human
Description: Time Resolved Fluorescence Resonance Energy Transfer (TR-FRET) Assay Binding was assessed using a time resolved fluorescent resonance energy transfer binding assay. This utilises a 6 His purification tag at the N-terminal of the proteins as an epitope for an anti-6 His antibody labeled with Europium chelate (PerkinElmer AD0111) allowing binding of the Europium to the proteins which acts as the donor fluorophore. A small molecule, high affinity binder of the bromodomains BRD2, BRD3, BRD4 and BRDT has been labeled with Alexa Fluor647 (Reference Compound X) and this acts as the acceptor in the FRET pair.
The binding of the compounds of formula (I) to Bromodomains BRD2, BRD3, BRD4 and BRDT was assessed using mutated proteins to detect differential binding to either Binding Domain 1 (BD1) or Binding Domain 2 (BD2) on the bromodomain. These single residue mutations in the acetyl lysine binding pocket greatly lower the affinity of the fluoroligand (Reference Compound X) for the mutated domain (>1000 fold selective for the non-mutated domain). Therefore in the final assay conditions, binding of the fluoroligand to the mutated domain cannot be detected and subsequently the assay is suitable to determine the binding of compounds to the single non-mutated bromodomain. […]

| Compound | selectivity of the fluoroligand for the non-mutated domain over the mutated domain [fold] |
| --- | --- |
| COc1ccc2c(c1)C(c1ccc(Cl)cc1)=N[C@@H](CC(=O)NCCCCCNC(=O)CCCCCC1(C)/C(=C/C=C/C=C/C3=[N+](CCCCS(=O)(=O)O)c4ccc(S(=O)(=O)O)cc4C3(C)C)N(CCCCS(=O)(=O)[O-])c3ccc(S(=O)(=O)O)cc31)c1nnc(C)n1-2 (stereo partly shown) [Reference Compound X] | > 1000 |

Each molecule was assayed against T1, BRD4 BD2 (Homo sapiens, UniProt O60885, Y97A) (assay: TR-FRET binding assay, BRD4 BD2 (BD1-mutated protein)). Details: read-out: pIC50 in the BRD4 BD2 assay (converted).
T1 construct: BRD4 (1-477) (Y97A) and (Y390A); made in house; host or cells: E. coli (pET15b vector)
Outline: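 Displacement of Alexa Fluor647-labelled bromodomain ligand (at Kd) from 10 nM His-tagged BRD4 (1-477, Y97A) read by Eu-anti-His TR-FRET (665/615 ratio) in pH 7.4 HEPES buffer, 0.5% DMSO. Compound preincubated 30 min at rt, detection ≥30 min. pIC50 derived from four-parameter fit after normalisation to controls.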

| Compound | IC50 [nM] |
| --- | --- |
| CC(=O)N1c2ccc(F)cc2[C@H](Nc2cc(O)ccn2)[C@@H](C)[C@@H]1C1CC1 [Example 532, 1-((2S,3R,4R)-2-cyclopropyl-6-fluoro-4-((4-hydroxypyridin-2-yl)amino)-3-methyl-3,4-dihydroquinolin-1(2H)-yl)ethanone] | 1000 to 100000 |
| CC(=O)N1c2ccc(F)cc2[C@H](Nc2ccc(O)nc2)[C@@H](C)[C@@H]1C1CC1 [Example 533, 1-((2S,3R,4R)-2-cyclopropyl-6-fluoro-4-((6-hydroxypyridin-3-yl)amino)-3-methyl-3,4-dihydroquinolin-1(2H)-yl)ethanone] | 1000 to 100000 |
| CC(=O)N1c2ccc(C3=CCOCC3)cc2[C@H](Nc2ncccn2)[C@@H](C)[C@@H]1C1CC1 [Example 555, 1-((2S,3R,4R)-2-cyclopropyl-6-(3,6-dihydro-2H-pyran-4-yl)-3-methyl-4-(pyrimidin-2-ylamino)-3,4-dihydroquinolin-1(2H)-yl)ethanone] | 100 |
| COCCn1cc(-c2ccc3c(c2)[C@H](Nc2nccc(C)n2)[C@@H](C)[C@H](C2CC2)N3C(C)=O)cn1 [Example 557, 1-((2S,3R,4R)-2-cyclopropyl-6-(1-(2-methoxyethyl)-1H-pyrazol-4-yl)-3-methyl-4-((4-methylpyrimidin-2-yl)amino)-3,4-dihydroquinolin-1(2H)-yl)ethanone] | 100 |
| CC(=O)N1c2ccc(N3CCNCC3)cc2[C@H](Nc2ccc(C(N)=O)cc2)[C@@H](C)[C@@H]1C [Example 571, 4-(((2S,3R,4R)-1-acetyl-2,3-dimethyl-6-(piperazin-1-yl)-1,2,3,4-tetrahydroquinolin-4-yl)amino)benzamide] | 100 |
| CC(=O)N1c2ccc(-c3cn[nH]c3)cc2[C@H](Nc2ncccn2)[C@@H](C)[C@@H]1C1CC1 [Example 581, 1-((2S,3R,4R)-2-cyclopropyyl-3-methyl-6-(1H-pyrazol-4-yl)-4-(pyrimidin-2-ylamino)-3,4-dihydroquinolin-1(2H)-yl)ethanone] | 100 |
| CC(=O)N1c2ccc(-c3cn[nH]c3)cc2[C@H](Nc2nccc(C)n2)[C@@H](C)[C@@H]1C1CC1 [Example 582, 1-((2S,3R,4R)-2-cyclopropyl-3-methyl-4-((4-methylpyrimidin-2-yl)amino)-6-(1H-pyrazol-4-yl)-3,4-dihydroquinolin-1(2H)-yl)ethanone] | 100 |
| CC(=O)N1c2ccc(-c3ncc[nH]3)cc2[C@H](Nc2ncccn2)[C@@H](C)[C@@H]1C1CC1 [Example 588, 1-((2S,3R,4R)-2-cyclopropyl-6-(1H-imidazol-2-yl)-3-methyl-4-(pyrimidin-2-ylamino)-3,4-dihydroquinolin-1(2H)-yl)ethanone] | 100 |
| CC(=O)N1c2ccc(-c3nnc(C)s3)cc2[C@H](Nc2ncccn2)[C@@H](C)[C@@H]1C1CC1 [Example 590, 1-((2S,3R,4R)-2-cyclopropyl-3-methyl-6-(5-methyl-1,3,4-thiadiazol-2-yl)-4-(pyrimidin-2-ylamino)-3,4-dihydroquinolin-1(2H)-yl)ethanone] | 100 |
